Experimental data as given in patent US11466024B2, “Bicylic compound acting as an inhibitor” (CHIA TAI TIANQING PHARMACEUTICAL GROUP CO., LTD., priority 2017, dated 2022).
pEC50: −log10 of the molar value. Where a name gives a salt, the structure may show the parent alone.

Columns and labels:
[1] = biological target: T1, RORγ (Homo sapiens, UniProt P51449); assay: In vitro test for inhibitory activity on RORγ: luciferase reporter cells expressing chimeric Gal4-RORγ receptor; type: cell-based; settings: Gal4 hybrid receptor luciferase reporter, HEK293, 24 hours incubation
T1 sequence (P51449 97-518): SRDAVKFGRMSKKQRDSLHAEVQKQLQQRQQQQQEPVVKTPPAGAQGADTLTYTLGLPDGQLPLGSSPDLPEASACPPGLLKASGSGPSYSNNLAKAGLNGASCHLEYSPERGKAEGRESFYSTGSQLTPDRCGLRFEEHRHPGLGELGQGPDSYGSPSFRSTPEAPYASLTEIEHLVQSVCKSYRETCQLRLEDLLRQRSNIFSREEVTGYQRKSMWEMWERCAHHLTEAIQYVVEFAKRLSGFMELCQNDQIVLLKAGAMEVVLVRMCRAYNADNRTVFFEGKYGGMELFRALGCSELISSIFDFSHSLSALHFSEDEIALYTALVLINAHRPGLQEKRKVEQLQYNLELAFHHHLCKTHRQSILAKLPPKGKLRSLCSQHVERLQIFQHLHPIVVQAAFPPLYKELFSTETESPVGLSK
Protocol: Reporter cells: Reporter cells expressing a chimeric RORγ receptor were used in this experiment. The chimeric RORγ receptor was a RORγ receptor formed by replacing the N-terminal DNA-binding domain of the natural RORγ protein with the DNA-binding domain of the yeast Gal4 protein. The luciferase reporter gene was located at the downstream of the Gal4 activating sequence (UAS).
Step 1: Reporter cells were prepared into a cell suspension using INDIGO's Cell Recovery Medium (CRM, containing 5% fetal bovine serum treated by activated carbon). The cell suspension was dispensed into a white 96-well culture plate in a volume of 100 μl/well.
Step 2: Eight concentration gradients were set for each test compound, and the test was conducted twice at each concentration. Prior to the experiment, the main stock solution of the test compound was serially diluted with DMSO, so as to formulate solutions with “1000×-concentration” relative to each of the final test concentrations. Subsequently, the compound was further diluted with the cell recovery medium (CRM, containing 5% fetal bovine serum treated by activated carbon), so as to formulate test working solutions with “2×-concentration”. As per a volume of 100 μl/well, the test working solutions were respectively added to the test wells in which the reporter cells were added in advance, so as to obtain the desired final test concentrations. The residual concentrations of DMSO in all test wells were 0.1%. The test plate was incubated in a cell incubator for 24 hours. Conditions of the incubator were set as follows: temperature: 37° C., 5% CO2, humidity: ˜85%.
Step 3: After 24 hours of incubation, the liquid in the culture plate was discarded, 100 μl of luciferase detection reagent was added to each test well, and then, the fluorescence intensity (Relative Luminescence Units, RLUs) in each well was read.
In this test, the reference compound ursolic acid was used as an internal standard of a positive compound to verify the inhibitory effect of the test compound on RORγ in reporter cells of a specific batch. The tests for the reference compound and the test compound were performed simultaneously, and the reference compound and the test compound were thus exposed to the same test reagent and environment. The reference compound group containing 0.1% DMSO as solvent was used as an internal standard of a positive compound, so as to determine the effect of the solvent DMSO on the test results and calculate the percentage reduction in RORγ activity.
The test data was managed and archived by Microsoft Excel, and mean±standard deviation (SD) of RLU, fold of reduction, inhibition rate, coefficient of variation (% CV) and Z factor were calculated. Coefficient of variation (% CV): 100×(SD/Ave. RLU); Fold of reduction for inverse agonist: [Ave. […]

[2] = biological target: T2, RORC2-LBD (Homo sapiens, UniProt P51449); assay: In vitro test for inhibitory activity on RORγ: TR-FRET screening (RORC2-LBD / SRC1 peptide interaction); type: biochemical; settings: Value of the concentration required for 50% inhibition (EC50) of RORγ, 15 nM RORc-LBD, 200 nM SRC1 peptide, 4° C. overnight
T2 sequence (P51449 269-508 limits assumed): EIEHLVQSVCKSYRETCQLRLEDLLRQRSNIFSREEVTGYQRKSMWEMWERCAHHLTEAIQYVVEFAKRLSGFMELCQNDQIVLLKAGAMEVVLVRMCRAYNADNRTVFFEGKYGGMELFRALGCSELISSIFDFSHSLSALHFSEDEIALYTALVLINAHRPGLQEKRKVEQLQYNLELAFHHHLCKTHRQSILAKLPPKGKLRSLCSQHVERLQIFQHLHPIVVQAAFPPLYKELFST
Text: The compounds of the present application was able to regulate (inhibit) the bioactivity of the nuclear receptor RORγ, and the strength of this regulatory (inhibitory) effect could be evaluated by a TR-FRET (time-resolved fluorescence resonance energy transfer) screening system. Nuclear receptor cofactors (co-activators and co-inhibitors) could regulate the transcription of a target gene by the interaction with nuclear receptors. If a ligand (test compound) affected the interaction between the nuclear receptors and the cofactors, this ligand (test compound) was able to regulate the transcription of the corresponding gene.
This method adopted the TR-FRET (time-resolved fluorescence resonance energy transfer) technique to determine the ability of a compound to regulate the interaction between the polypeptide indirectly bound to APC […] (namely, APC was indirectly bound to the polypeptide by binding to Streptavidin and biotin) and RORC2-LBD linked to a europium (Eu)-labeled anti-His antibody (Perkin Elmer #AD0111). In the absence of the compound, RORC2 could bind to an APC-modified polypeptide. If the compound was an agonist, it could enhance the interaction between RORC2 and the APC-modified polypeptide after binding to RORC2. On the contrary, if the compound was an inverse agonist, it could inhibit the interaction between RORC2 and the APC-modified polypeptide after binding to RORC2. When the APC-modified polypeptide and the Eu-labeled anti-His antibody-RORC2-LBD complex approached to each other and the distance therebetween was within a certain distance, energy transfer could occur and a TR-FRET signal was generated.
A buffer solution comprising 50 mM Tris (pH 7.0), 50 mM KCl, 1 mM Na-EDTA, 0.01% BSA (0.1 mg/ml), and 0.1 mM DTT was freshly formulated prior to the experiment.
2.3 Formulation of a RORγ-containing working solution. Prior to the test, a working solution containing 1.67 nM Eu/anti-His and 0.75 μl/well of SF9 cell lysate was freshly formulated, and was placed on ice before use. 25.05 nM of RORγ was added to the working solution.
2.5 Ten concentration gradients were set for each test compound, and duplicate wells were set for each concentration. The formulating method of the test compounds was as follows: […]
2) 15 μl of the RORγ-containing working solution was added to columns 1 to 21 of the tested 384-well plate (the final concentration of Eu/anti-His was 1 nM, and the final concentration of RORg was 15 nM); and […]
9) data analysis was performed using the ratio of the numerical value detected at an emission wavelength of 665 nm to the numerical value detected at an emission wavelength of 615 nm. […]

[3] = tested on: imiquimod-induced psoriasis; assay: In vivo pharmacodynamic study in imiquimod (IMQ)-induced psoriasis model in mice; parameters: species or system C57BL/6 mice; key to Clinical scores (Mean ± SEM, n = 8): 0 = no disease, 1 mild, 2 moderate, 3 severe, 4 very severe; settings: 5 mg/kg, ig
Protocol: 6- to 8-week old female C57BL/6 mice were selected, depilated on the backs, and sensitized two days later except for the sham operation group. On the day of sensitization, the mice were randomly divided into the following 6 groups (8 mice per group). Group I was a sham operation group; Group II was a vehicle control group and PBS was administered; Group III was a positive control group and 5 mg/kg methotrexate was administered; Groups IV, V and VI were ip treatment group, ig treatment group, and topical treatment group of the compound of Example 1, and 75 mg/kg of the compound of Example 1 was administered via intraperitoneal injection, intragastric administration, and dorsal application, respectively. Administration was started on the day of sensitization, once daily for Group III and twice daily for Groups IV to VI. On the day of sensitization, the mice in Groups II to VI were given 60 to 80 mg of imiquimod cream (5%) on the dorsal skin for 4 consecutive days. (Please refer to Bouchaud, G., et al., Epidermal IL-15Ralpha acts as an endogenous antagonist of psoriasiform inflammation in mouse and man. J. Exp. Med., 2013. 210(10): p. 2105-17.)
The mice were weighed daily from the day of sensitization, and the skin scales, induration, and erythema were observed and scored according to a four-grade scoring method: 0 point, no disease; 1 point, mild; 2 points, moderate; 3 points, severe; and 4 points, very severe. (Please refer to Qin, S., et al., Endogenous n-3 polyunsaturated fatty acids protect against imiquimod-induced psoriasis-like inflammation via the IL-17/IL-23 axis. Mol Med Rep, 2014. 9(6): p. 2097-104.)

[4] = tested on: MOG35-55-induced experimental autoimmune encephalomyelitis (EAE); assay: In vivo pharmacodynamic research on MOG35-55-induced experimental autoimmune encephalomyelitis (EAE) in mice; settings: G3, 0.5 mg/kg p.o. qd
Protocol: The day of immunization was recorded as day 0, and the subsequent days were marked sequentially. Mice were anesthetized with isoflurane, and 100 μl of the emulsion was administered via subcutaneous injection at three sites (the middle part between shoulder and back, and two sides of the tail that were close to the groin), namely, 33 μl of the emulsion for each site. 0 hour and 48 hours after the injection of the emulsion, 200 ng (i.e. 200 μl) of the PTX solution was intraperitoneal injected. Mice in the normal group were not required to be immunized.
After the immunization on day 0, the immunized mice were randomly divided into 3 groups with 10 mice in each group according to the body weights except for the mice in the normal group, the details were shown in Table 1. FTY720 served as a positive drug, and a dose of […] was an effective dose commonly used in the EAE model.
The first group was normal mice without any treatment; vehicle was administered to the second group; FTY720 was administered to the third group at a dose of 0.5 mg/kg once a day; and the compound of Example 1 was administered to the fourth group at a dose of 75 mg/kg twice a day. The administration lasted for 25 days in total. The volume of intragastric administration was 10 ml/kg.
The day when animals were immunized was day 0. Animal body weights were recorded three times a week from day 0 to day 10, and the body weights and clinical scores of the animals were closely observed and recorded daily from day 11.
The experimental data was expressed as mean±standard error of mean (Mean±SEM).
The area under the curve of clinical scores over time (i.e. “AUC of clinical scores” or “area under the curve of clinical scores”) was calculated by analyzing the curve of clinical scores for each animal in each group, and the inhibition rates of the remaining groups (G1, G3, and G4) relative to G2 (solvent control group) were calculated by the mean AUC of clinical scores among groups.

Work on `CCS(=O)(=O)c1ccc(CNC(=O)c2cc3c(s2)C(C(C)C)N(CC2CCC(C(F)(F)F)CC2)C3=O)nc1` (single isomer, unassigned) [Example 3] yielded a pEC50 ([1]; Specific value of the concentration required for 50% inhibition (EC50) of RORγ) of 6.83, a pEC50 ([1]; Value of the concentration required for 50% Inhibition (EC50) of RORγ) of 6.30 to 7.00 and a pEC50 [2] of 6.30 to 7.00.

`CN(Cc1cnc2nc(N)nc(N)c2n1)c1ccc(C(=O)N[C@@H](CCC(=O)O)C(=O)O)cc1` [Methotrexate, reference compound] was tested, and the “Clinical scores (Mean ± SEM, n = 8)” value ([3]; Day 1) was 0 ± 0, the “Clinical scores (Mean ± SEM, n = 8)” value ([3]; Day 2) was 0.19 ± 0.13 and the “Clinical scores (Mean ± SEM, n = 8)” value ([3]; Day 3) was 0.50 ± 0.13. The “Clinical scores (Mean ± SEM, n = 8)” value ([3]; Day 4) was 0.88 ± 0.25 and the “Clinical scores (Mean ± SEM, n = 8)” value ([3]; Day 5) was 0.93 ± 0.23.

`CCS(=O)(=O)c1ccc(CNC(=O)c2cc3c(s2)C(C(C)C)N(CC2CCC(C(F)(F)F)CC2)C3=O)nc1` (single isomer, unassigned) [Example 4] showed a pEC50 [2] of 5.30 to 6.00.

`CCS(=O)(=O)c1ccc(CNC(=O)c2cc3c(s2)C(C(C)C)N(Cc2ccc(C(F)(F)F)cc2)C3)nc1` (stereo not shown) [Example 9] was tested, and the pEC50 [2] was > 7.00.

With `CCCCCCCCc1ccc(CCC(N)(CO)CO)cc1` [FTY720, fingolimod hydrochloride, reference compound] the “inhibition rate of AUC of clinical scores relative to solvent control group” value ([4]; 25 days, FIG. 2) was 100%, the “morbidity of EAE” value ([4]; from the beginning to end, FIG. 3) was 0 and the body weight changes ([4]; significantly different from solvent control group, FIG. 4) was “kept increasing”.
